Measurements taken from patent US8338472B2, “Hexahydrocyclopentyl[F]indazole carboxamides and derivatives thereof as selective glucocorticoid receptor modulators” (Merck Sharp & Dohme Corp., priority 2008, dated 2012).
pEC50, pKi: −log10 of the molar value. Like-named read-outs stand apart in the source and are kept apart here.

Experiments:
[1] = target: T1, glucocorticoid receptor (GR) (Homo sapiens, UniProt P04150); assay: Ligand binding assay (GR BIND), 3H-dexamethasone displacement in MDA-MB-453 cell lysate; conditions: GR BIND Ki, Table 1
T1 sequence (P04150 1-777): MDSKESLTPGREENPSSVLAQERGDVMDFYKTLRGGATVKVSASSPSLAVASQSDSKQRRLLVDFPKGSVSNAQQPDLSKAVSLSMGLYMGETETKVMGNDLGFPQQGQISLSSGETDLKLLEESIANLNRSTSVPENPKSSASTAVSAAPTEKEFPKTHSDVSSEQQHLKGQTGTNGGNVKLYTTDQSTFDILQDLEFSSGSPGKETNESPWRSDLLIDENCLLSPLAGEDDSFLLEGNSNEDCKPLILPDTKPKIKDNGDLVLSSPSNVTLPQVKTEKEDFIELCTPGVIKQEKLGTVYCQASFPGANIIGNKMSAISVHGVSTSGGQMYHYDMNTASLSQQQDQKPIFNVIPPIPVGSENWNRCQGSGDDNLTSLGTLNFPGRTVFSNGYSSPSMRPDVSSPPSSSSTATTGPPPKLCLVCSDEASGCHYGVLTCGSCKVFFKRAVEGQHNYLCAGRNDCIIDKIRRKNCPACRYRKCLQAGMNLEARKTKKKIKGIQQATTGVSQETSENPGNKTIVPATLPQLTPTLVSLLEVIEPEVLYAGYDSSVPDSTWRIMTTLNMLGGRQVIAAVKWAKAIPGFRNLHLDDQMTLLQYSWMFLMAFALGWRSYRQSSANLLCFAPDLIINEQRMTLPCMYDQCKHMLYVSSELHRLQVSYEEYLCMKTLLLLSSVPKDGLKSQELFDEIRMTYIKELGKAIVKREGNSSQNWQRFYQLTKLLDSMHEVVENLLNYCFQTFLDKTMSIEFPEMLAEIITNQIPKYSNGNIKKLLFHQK

[2] = target: T2, Glucocorticoid Receptor (Homo sapiens, UniProt P04150); assay: Trans-Activation Modulation of Glucocorticoid Receptor (GRAMMER), MMTV-LUC reporter gene in A549 cells; type: cell-based; conditions: Table 1; for Emax: A549, A549 cells, Emax relative to 300 nM dexamethasone, read-out: Transactivation A549 Cells GRAMMER Emax; for pEC50: inflection point, A549 cells, read-out: Transactivation A549 Cells GRAMMER IP
T2 construct: These cells express large amount of the GR and are very responsive to GC treatment; endogenous in cells; host or cells: A549 cells transiently transfected with the MMTV-LUC reporter
T2 sequence (P04150 1-777): T1 sequence (P04150 1-777)
From the text: Trans-Activation Modulation of Glucocorticoid Receptor (GRAMMER)
This assay assesses the ability of test compounds to control transcription from the MMTV-LUC reporter gene in lung adenocarcinoma A549 cells or MDA-MB-453 cells, a human breast cancer cell line that naturally expresses the human GR. The assay measures induction of a modified MMTV LTR/promoter linked to the LUC reporter gene.
The routine transient assay consists of plating 7,000-25,000 cells/well of a white, clear-bottom 96-well plate. Alternatively, 384-well plates can be used at a cell concentration of 10,000/well. The media that the cells are plated in is “exponential growth medium” which consists of phenol red-free RPMI1640 containing 10% FBS, 4 mM L-glutamine, 20 mM HEPES, 10 ug/mL human insulin, and 20 ug/mL gentamicin. Incubator conditions are 37° C. and 5% CO2. The transfection is done in batch mode. The cells are trypsinized and counted to the right cell number in the proper amount of fresh media. It is then gently mixed with the FuGene6/DNA mix and plated onto the 96 or 384-well plate, all the wells receive 100 uL or 40 uL, respectively, of medium+lipid/DNA complex then incubated 37° C. overnight. The transfection cocktail consists of serum-free OptiMEM, FuGene6 reagent and DNA. The manufacturer's (Roche Biochemical) protocol for cocktail setup is as follows: The lipid to DNA ratio is approximately 2.5:1 and the incubation time is 20 min at room temperature. Sixteen to 24 hours after transfection, the cells are treated with dexamethasone to a final concentration of 10 nM as well as the compound of interest, such that final DMSO (vehicle) concentration is equal to or less than 1%. Each plate also contains samples that are treated with 10 nM dexamethasone alone, which is used as the 100% activity control. The cells are exposed to the compounds for 24 hours. After 24 hours, the cells are lysed by a Promega cell culture lysis buffer for approximately 30 min and then the luciferase activity in the extracts is assayed in the 96-well format luminometer. In 384-well format, Steady-Glo (Promega) or Steady-Lite (PerkinElmer) can be used by adding an equal volume of reagent to the media present in each well. Activity induced by 10 nM dexamethasone alone is set at 100% activity. Antagonist activity is calculated by determining the decrease in dexamethasone-induced activity in response to compound treatment relative to samples that were treated with dexamethasone alone. […] This transactivation assay can be performed in an agonist and antagonist mode to identify these different activities.
Activity of test compounds is calculated as the Emax relative to the activity obtained with 300 nM dexamethasone. Activity of test compounds is calculated as the Emax relative to the activity obtained with 300 nM DEX. […] The action of compounds is also tested in an antagonist mode (Anti-GRAMMER) in which the cells are treated with medium containing an agonist such as 10 nM DEX and the ability to agents to inhibit the activation by an agonist is measured.

[3] = target: T3, human GR (Homo sapiens, UniProt P04150); assay: Transrepression Assay (GITAR), TNFα-β-lactamase reporter gene in U937 cells; type: cell-based; conditions: for GITAR Greater than by GRAMMER % SEP: GITAR Emax minus GRAMMER Emax; for pEC50: inflection point, U937 cells, read-out: Transrepression U937 Cells GITAR IP
T3 construct: U937 cells contain an endogenous glucocorticoid receptor (GR); endogenous in cells; host or cells: U937 cells stably transfected with the TNF-alpha promoter/beta-lactamase reporter
T3 sequence (P04150 1-777): T1 sequence (P04150 1-777)
From the text: Transrepression Assay (GITAR)
This assay assesses the ability of test compounds to control transcription from the TNFα-β-lactamase reporter gene in U937 cells, a human myelomonocytic leukemia cell line that naturally expresses the human GR. The assay measures compound dependent-repression of the TNFa promoter linked to a reporter gene.
The human U937 cells that had been stablely transfected with the TNF-α promoter driving β-lactamase are used for this assay. U937 cells contain an endogenous glucocorticoid receptor (GR). Cells are maintained in RPMI 1640 Growth medium (Gibco Cat#11875-093) containing 25 mM HEPES, 10% FBS, 2 mM L-Glutamine, 1 mM Sodium pyruvate, 25 μg/ml Gentamicin (Gibco Cat#15710-064), 1:1000 2-Mercaptoethanol (Gibco Cat#21985-023) and 0.8 mg/ml G418 (Gibco Cat#10131-027). The density of the cells in the flask needs to be about 1×10^6−3×10^6/ml at the time of harvest. Usually, the cells are split to 1.2˜1.4×10^5/ml (1:10) 3 days prior to the assay. 50,000 cells/well are plated in 96 well black-walled plates the day of assay. Test compounds are added 10 pt/well, and cells are incubated at 37° C. for 30-45 min. For assaying compounds, first dilute 1:10 in DMSO to make 1 mM, then further dilute 1:100 in medium to make 10× stock prior to adding to the cells. Add 50 ng/ml PMA (Sigma, cat# P8139) 10 μL/well to a final concentration 5 ng/ml, and 1 μg/ml LPS (Sigma, cat# L4130) 10 μL/well to a final concentration 100 ng/ml. Incubate cells at 37° C. overnight for ˜18 hr. PMA is stored frozen as 100 μg/ml stock in DMSO. Dilute 1:10 in DMSO for a working stock of 10 μg/ml and store at −20C. For assaying, dilute the […] working stock 1:200 in medium to make a 10× solution (50 ng/ml). Store frozen LPS at 1 mg/ml in PBS, dilute 1:1000 in medium to make 10× (1 μg/ml) for the assay. Add 6× loading buffer (CCF2−AM) 20 μL/well, and incubate at room temperature for 70-90 min. […] The activity repressed by 100 nM dexamethasone alone is set as 100% activity.

[4] = U-937, U937 cells, activity repressed by 100 nM dexamethasone = 100%, Table 1, read-out: Transrepression U937 Cells GITAR Emax
[5] = U-937, text statement, 100 nM dexamethasone = 100%, read-out: maximal activity in the transrepression assay (GITAR)

pKi [1] | Emax [2] | pEC50 [2] | GITAR Greater than by GRAMMER % SEP ([3]; Table 1) | Emax [3, 4] | Emax [3, 5] | pEC50 ([3]; Table 1) | Compound
8.35 | 4% | 5.77 | 6.2% | 10.2% | > 5% | 5.37 | C[C@]12Cc3cnn(-c4ccc(F)cc4)c3C=C1CC[C@@H]2C(=O)N1CCCC1CCc1ccccc1 (stereo partly drawn) [Compound 19, (4αR,5S)-1-(4-fluorophenyl)-4α-methyl-5-{[2-(2-phenylethyl)pyrrolidin-1-yl]carbonyl}-1,4,4α,5,6,7-hexahydrocyclopenta[f]indazole]
8.51 | 3.6% | 8.89 | 7.4% | 11% | > 5% | 6.16 | C[C@]12Cc3cnn(-c4ccc(F)cc4)c3C=C1CC[C@@H]2C(=O)N1CCCC(CCc2ccccc2)C1 (stereo partly drawn) [Compound 20, (4αR,5S)-1-(4-fluorophenyl)-4α-methyl-5-{[3-(2-phenylethyl)piperidin-1-yl]carbonyl}-1,4,4α,5,6,7-hexahydrocyclopenta[f]indazole]
8.64 | 26.2% | 6.24 | 1.9% | 28.1% | > 5% | 6.13 | C[C@]12Cc3cnn(-c4ccc(F)cc4)c3C=C1CC[C@@H]2C(=O)N1CCCC(Cc2cccc(C(F)(F)F)c2)C1 (stereo partly drawn) [Compound 21, (4αR,5S)-1-(4-fluorophenyl)-4α-methyl-5-({3-[3-(trifluoromethyl)benzyl]piperidin-1-yl}carbonyl)-1,4,4α,5,6,7-hexahydrocyclopenta[f]indazole]
8.32 | 5.5% | 6.41 | 11.7% | 17.3% | > 5% | 5.70 | C[C@]12Cc3cnn(-c4ccc(F)cc4)c3C=C1CC[C@@H]2C(=O)N1CCCCC1Cc1ccccc1 (stereo partly drawn) [Compound 22, (4αR,5S)-5-[(2-benzylpiperidin-1-yl)carbonyl]-1-(4-fluorophenyl)-4α-methyl-1,4,4α,5,6,7-hexahydrocyclopenta[f]indazole]
7.71 | 3.8% | 7.34 | 14.2% | 18% | > 5% | 5.77 | C[C@]12Cc3cnn(-c4ccc(F)cc4)c3C=C1CC[C@@H]2C(=O)Nc1ccccc1S(N)(=O)=O [Compound 23, (4αR,5S)-N-[2-(aminosulfonyl)phenyl]-1-(4-fluorophenyl)-4α-methyl-1,4,4α,5,6,7-hexahydrocyclopenta[f]indazole-5-carboxamide]
8.33 | 9.2% | 6.21 | 5.3% | 14.5% | > 5% | 6.39 | CCNC(=O)CN(CCc1ccccc1)C(=O)[C@H]1CCC2=Cc3c(cnn3-c3ccc(F)cc3)C[C@@]21C [Compound 24, (4αR,5S)-N-[2-(ethylamino)-2-oxoethyl]-1-(4-fluorophenyl)-4α-methyl-N-(2-phenylethyl)-1,4,4α,5,6,7-hexahydrocyclopenta[f]indazole-5-carboxanide]
7.90 | 9.3% | 5.84 | 38.7% | 48% | > 5% | 5.56 | C[C@]12Cc3cnn(-c4ccc(F)cc4)c3C=C1CC[C@@H]2C(=O)N(CCO)Cc1ccccc1F [Compound 25, (4α,5S)-N-(2-fluorobenzyl)-1-(4-fluorophenyl)-N-(2-hydroxyethyl)-4α-methyl-1,4,4α,5,6,7-hexahydrocyclopenta[f]indazole-5-carboxamide]
7.79 | 39.3% | 6.09 | 44.1% | 83.4% | > 5% | 6.09 | CCCCN(CCO)C(=O)[C@H]1CCC2=Cc3c(cnn3-c3ccc(F)cc3)C[C@@]21C [Compound 26, (4αR,5S)-N-butyl-1-(4-fluorophenyl)-N-(2-hydroxyethyl)-4α-methyl-1,4,4α,5,6,7-hexahydrocyclopenta[f]indazole-5-carboxamide]
7.86 | 10.2% | 5.66 | 45.6% | 55.8% | > 5% | 5.79 | Cc1ccc(CN(CCO)C(=O)[C@H]2CCC3=Cc4c(cnn4-c4ccc(F)cc4)C[C@@]32C)cc1F [Compound 27, (4αR,5S)-N-(3-fluoro-4-methylbenzyl)-1-(4-fluorophenyl)-N-(2-hydroxyethyl)-4α-methyl-1,4,4α,5,6,7-hexahydrocyclopenta[f]indazole-5-carboxamide]
